Reference: patent publication US20210171464A1 (OLON S.P.A., priority 2017, published 2021)

Key:
dopamine receptors = conditions: cited from earlier work
[1] = exposure to atmospheric humidity (stability, hygroscopicity); assay type: physicochemical

Row | hygroscopicity [1] | stability when exposed to atmospheric humidity ([1]; exposed to atmospheric humidity) | Compound | affinity for dopamine receptors (dopamine receptors)
1 | – | – | N-(4-fluorobenzyl)-N-(1-methylpiperidin-4-yl)-N′ -(4-(2-methyl-propyloxy)phenylmethyl)carbamide hemitartrate [pimavanserin hemitartrate] | no affinity
2 | not hygroscopic | stable | CC(C)COc1ccc(CNC(=O)N(Cc2ccc(F)cc2)C2CCN(C)CC2)cc1.CC(C)COc1ccc(CNC(=O)N(Cc2ccc(F)cc2)C2CCN(C)CC2)cc1.O=C(O)C(O)C(O)C(=O)O [N-(4-fluorobenzyl)-N-(1-methylpiperidin-4-yl)-N′-(4-(2-methylpropyloxy)-phenylmethyl)carbamide hemitartrate] | –
